Reference: patent US11497726B2, “Topical therapy for the treatment of cervical intraepithelial neoplasia (CIN) and cervical cancer using nanoparticles of taxanes” (DFB SORIA, LLC, priority 2018, dated 2022)
Where two headings read alike, the source gives them in different places.

Key:
high-grade CIN = conditions: cited from earlier work
[1] = Solubility of paclitaxel in various solvents (HPLC); type: physicochemical
Method: Step “d” was continued for each vial for a total of 48 hours.

[2] = summary statement on the cited study; cited from earlier work
[3] = Crystal growth of paclitaxel nanoparticles, visual observation by light microscopy; type: physicochemical
[4] = Specific surface area (SSA), BET isotherm; type: physicochemical
Method: (§1) As used herein, the “specific surface area (SSA)” is the total surface area of the taxane nanoparticle per unit of taxane mass as measured by the Brunauer-Emmett-Teller (“BET”) isotherm by the following method: a known mass between 200 and 300 mg of the analyte is added to a 30 mL sample tube. […] The automated test is then carried out using the BETWIN® software package and the surface area of each sample is subsequently calculated. The bulk density measurement can be conducted by pouring the taxane nanoparticles into a graduated cylinder without tapping at room temperature, measuring the mass and volume, and calculating the bulk density.

[5] = Particle size of paclitaxel nanoparticle lots (ACCUSIZER 780); type: physicochemical
Method: Instrument parameters: Max. Concentration: 9000 particles/mL, No. containers: 1, Sensor Range: Summation, Lower Detection Limit: 0.5 μm, Flow Rate: 30 mL/min, No. Analysis pulls: 4, Time between pulls: 1 sec, Pull volume: 10 mL, Tare Volume: 1 mL, Prime volume: 1 mL, Include First Pull: Not Selected.
Vortexed for 5-10 minutes and sonicated in a water batch for 1 minute.
Method: Filled a plastic bottle with filtered (0.22 μm) 0.1% w/w SDS solution and analyzed the Background.

Gottingen minipigs = experiment: Dermal toxicity study, 28 days, GLP; type: in vivo; conditions: topical, daily for 28 days
Method: The GLP-compliant study was conducted in Gottingen minipigs to characterize the toxicity of the formulations applied topically to 10% body surface area daily for 28 days. […] Reversibility of findings was also evaluated following a 2-week recovery period. Parameters evaluated included clinical observations, mortality and moribundity checks, dermal scoring, body weight, food consumption, eye examinations, test site photographs, electrocardiology, clinical pathology, bioanalysis and toxicokinetic evaluation, organ weights, macroscopic pathology and histopathology. There were no formulation-related effects on survival, clinical signs, dermal irritation, body weights, body weight gains, food consumption, ophthalmic findings, or cardiology parameters.

[6] = Bulk density (not tapped); type: physicochemical
Method: as §1

rabbit skin = conditions: Draize rabbit skin test model; cited from earlier work
[7] = methanol/water 15/85 (v/v), 37° C., pH 7, 75 rpm, cited from earlier work
[8] = lot used in formulas listed in Table 3
[9] = lot used in formulas listed in Tables 16-19

CC(C)Cn1cnc2c(N)nc3ccccc3c21 [Imiquimod]
tolerability (high-grade CIN; despite frequent adverse effects such as vaginal discharge, vulvar pain, fever, headache, and fatigue): generally well-tolerated
efficacy in the treatment of high-grade CIN (high-grade CIN; topically applied to the ectocervix): some efficacy

CC(=O)O[C@H]1C(=O)[C@@]2(C)[C@H]([C@H](OC(=O)c3ccccc3)[C@]3(O)C[C@H](OC(=O)[C@H](O)[C@@H](NC(=O)c4ccccc4)c4ccccc4)C(C)=C1C3(C)C)[C@]1(OC(C)=O)CO[C@@H]1C[C@@H]2O [Paclitaxel, paclitaxel]
Paclitaxel Solubility at RT ([1]; in Benzyl Alcohol, NF): 17.02% w/w
Paclitaxel Solubility at RT ([1]; in Diethylene Glycol Monoethyl Ether, NF (TRANSCUTOL P)): 33.10% w/w
Paclitaxel Solubility at RT ([1]; in Diisopropyl Adipate (CERAPHYL 230)): 3.51% w/w
Paclitaxel Solubility at RT ([1]; in Dimethyl Isosorbide): 38.22% w/w
Paclitaxel Solubility at RT ([1]; in Hexylene Glycol): 4.07% w/w
Paclitaxel Solubility at RT ([1]; in Isopropyl Myristate, NF): 0.048% w/w
Paclitaxel Solubility at RT ([1]; in Medium Chain Triglycerides, NF): 0.32% w/w
Paclitaxel Solubility at RT ([1]; in Mineral Oil, USP (heavy)): 0.3 ppm
Paclitaxel Solubility at RT ([1]; in Polyethylene Glycol 400, NF): 22.30% w/w
Paclitaxel Solubility at RT ([1]; in Propylene Carbonate): 4.74% w/w
Paclitaxel Solubility at RT ([1]; in Propylene Glycol, USP): 0.88% w/w
Paclitaxel Solubility at RT ([1]; in Super Refined Oleic Acid, NF): 0.041% w/w
Paclitaxel Solubility at RT ([1]; in Super Refined Oleyl Alcohol, NF): 0.38% w/w
solubility of paclitaxel in water ([1]; in water, method of Example 1): less than 0.05 ppm

Cyclomethicone
irritation to vaginal tissues [2]: non-irritating

CC(=O)O[C@H]1C(=O)[C@@]2(C)[C@H]([C@H](OC(=O)c3ccccc3)[C@]3(O)C[C@H](OC(=O)[C@H](O)[C@@H](NC(=O)c4ccccc4)c4ccccc4)C(C)=C1C3(C)C)[C@]1(OC(C)=O)CO[C@@H]1C[C@@H]2O [Paclitaxel nanoparticles, paclitaxel]
Needle shaped crystals observed? (visual observation by light microscopy) ([3]; in Aluminum sulfate 0.1-0.2% in water, 7 days, RT): Yes, >5 μm, @
Needle shaped crystals observed? (visual observation by light microscopy) ([3]; in Ammonium lauryl sulfate 2% in water, 3 days, RT): Yes, >5 μm @
Needle shaped crystals observed? (visual observation by light microscopy) ([3]; in Benzalkonium chloride (50%) 2% in water, 7 days & 21 days, RT): No, <5 μm @
Needle shaped crystals observed? (visual observation by light microscopy) ([3]; in CARBOPOL ULTREZ 10 (with Ammonium hydroxide as neutralizer) 0.5% in water, 8 days & 21 days, RT): No, <5 μm, @
Needle shaped crystals observed? (visual observation by light microscopy) ([3]; in Castor Oil 100%, 24 hrs & 9 days, RT): No, <5 μm @
Needle shaped crystals observed? (visual observation by light microscopy) ([3]; in Dimethicone, 1000 cSt 100%, 24 hrs & 6 days, RT): No, <5 μm @
Needle shaped crystals observed? (visual observation by light microscopy) ([3]; in FOMBLIN HC04 100%, 4, 7 & 13 days, RT): No, <5 μm @
Needle shaped crystals observed? (visual observation by light microscopy) ([3]; in Hydroxyethyl cellulose 1% in water, 7 days, RT): Yes, >5 μm, @
Needle shaped crystals observed? (visual observation by light microscopy) ([3]; in Hydroxypropyl methylcellulose 1% in water, 3 days, RT): Yes, >5 μm @
Needle shaped crystals observed? (visual observation by light microscopy) ([3]; in Lecithin 1% in water, 24 hrs, RT): Yes, >10 μm, @
Needle shaped crystals observed? (visual observation by light microscopy) ([3]; in Light Mineral Oil NF 100%, 3 days, RT & 40 C.): No, <5 μm @
Needle shaped crystals observed? (visual observation by light microscopy) ([3]; in Magnesium nitrate 5% in water, 3 days, RT): Yes, >5 μm @
Needle shaped crystals observed? (visual observation by light microscopy) ([3]; in Mannitol 5% in water, 7 days, RT): Yes, >5 μm, @
Needle shaped crystals observed? (visual observation by light microscopy) ([3]; in Mineral Oil USP (heavy) 100%, 3 days, RT & 40 C.): No, <5 μm @
Needle shaped crystals observed? (visual observation by light microscopy) ([3]; in PEG 400 10% in water, 22 days, RT & 60 C.): Yes, >5 μm @
Needle shaped crystals observed? (visual observation by light microscopy) ([3]; in Poloxamer 188 2% in water, 7 days, RT): Yes, >5 μm @
Needle shaped crystals observed? (visual observation by light microscopy) ([3]; in Poloxamer 407 2% in water, 5 & 7 days, RT): No, <5 μm @
Needle shaped crystals observed? (visual observation by light microscopy) ([3]; in Polyoxyl 40 Hydrogenated Castor Oil (KOLLIPHOR RH40) 1% in water, 6 days, RT): Yes, <5 μm @
Needle shaped crystals observed? (visual observation by light microscopy) ([3]; in Polysorbate 80 0.5% in Saline, 7 days, RT & 60 C.): Yes, >5 μm @
Needle shaped crystals observed? (visual observation by light microscopy) ([3]; in Polysorbate 80 0.5% in water, 22 days, RT & 60 C.): Yes, <5 μm @
Needle shaped crystals observed? (visual observation by light microscopy) ([3]; in Povidone 1% in water, 7 days & 21 days, RT): Yes, <5 μm @
Needle shaped crystals observed? (visual observation by light microscopy) ([3]; in Proline 3% in water, 7 days, RT): Yes, >5 μm, @
Needle shaped crystals observed? (visual observation by light microscopy) ([3]; in Purified Water 100%, 5 days, RT & 60 C.): Yes, >5 μm, @
Needle shaped crystals observed? (visual observation by light microscopy) ([3]; in ST-Cyclomethicone 5 NF 100%, 24 hrs & 13 days, RT): No, <5 μm @
Needle shaped crystals observed? (visual observation by light microscopy) ([3]; in Saline 0.9% NaCl in water, 7 days, RT & 60 C.): Yes, >10 μm, @
Needle shaped crystals observed? (visual observation by light microscopy) ([3]; in Sodium lauryl sulfate 2% in water, 7 days, RT): Yes, >5 μm, @
Needle shaped crystals observed? (visual observation by light microscopy) ([3]; in Sodium phosphate monobasic 0.75% in water, 7 days, RT): Yes, >5 μm, @
Needle shaped crystals observed? (visual observation by light microscopy) ([3]; in Sorbitol 5% in water, 7 days, RT): Yes, >5 μm, @
Needle shaped crystals observed? (visual observation by light microscopy) ([3]; in Vitamin E TPGS 0.5% in water, 6 days, RT): Yes, <5 μm @
Needle shaped crystals observed? (visual observation by light microscopy) ([3]; in Zinc acetate […] in water, 7 days, RT): Yes, >5 μm, @
crystal growth ([3]; in any of the hydrophobic carriers of Table 2): did not grow
crystal growth ([3]; in aqueous solutions of benzalkonium chloride, CARBOPOL ULTREZ 10, or poloxamer 407): did not grow
SSA [4, 8]: 41.24 m^2/g
SSA [4, 9]: 26.72 m^2/g
Particle size, Mean (number-weighted differential distribution) [5, 8]: 0.861 μm
Particle size, Median (number-weighted differential distribution) [5, 8]: 0.710 μm
Particle size, Mode (number-weighted differential distribution) [5, 8]: 0.572 μm
Particle size, Mean (number-weighted differential distribution) [5, 9]: 0.83 μm
effect of the presence of the nanoparticles in the formulations on dermal irritation (Gottingen minipigs): negligible effect
bulk density (not-tapped) [6, 8]: 0.05 g/mL
bulk density (not-tapped) [6, 9]: 0.09 g/mL

CCCCCCCCCCCCN1CCCCCC1=O [laurocapram, 1-Dodecyl azacycloheptan-2-one]
local skin irritation (rabbit skin): edema and erythema have been observed

CC(=O)O[C@@]12CO[C@@H]1C[C@H](O)[C@@]1(C)C(=O)[C@H](O)C3=C(C)[C@@H](OC(=O)[C@H](O)[C@@H](NC(=O)OC(C)(C)C)c4ccccc4)C[C@@](O)([C@@H](OC(=O)c4ccccc4)[C@H]21)C3(C)C [docetaxel nanoparticles, docetaxel]
dissolution rate, % dissolved in 30 minutes ([7]; nanoparticles made by milling): 9%
dissolution rate, % dissolved in 30 minutes ([7]; nanoparticles made by the supercritical carbon dioxide method): 27%
